Assay [1] addresses CDK9/cyclin T1 (Homo sapiens) (UniProt O60563+P50750). Description: Inhibition of CDK9/cyclin T (unknown origin) using […] at 1 uM incubated for 40 mins in presence of ATP by Kinase-Glo assay relative to control. Format: protein-complex assay.
The target of assay [2] is Cyclin-dependent kinase 2/cyclin A (Homo sapiens, UniProt P24941). Description: Inhibition of CDK2/cyclin A (unknown origin) using […] incubated for 40 mins in presence of ATP by Kinase-Glo assay. The assay is classed as protein-complex assay. In general terms: Kinase-Glo measures the ATP left after a reaction by luminescence.
The next assay concerns HCT-116. Description: Cytotoxicity against human HCT-116 cells assessed as cell growth inhibition incubated for 48 hrs by MTT assay. Format: functional, cell-based. Particulars: HCT-116, 48 h. Background: Formazan colour is commonly taken as a measure of viable cells.
In assay [3] the target is Cyclin-dependent kinase 2/cyclin A (Homo sapiens) (UniProt P24941+P20248+P78396). The assay is described as follows: Inhibition of CDK2/cyclin A (unknown origin) using […] at 1 uM incubated for 40 mins in presence of ATP by Kinase-Glo assay relative to control. The assay is classed as protein-complex assay.
A short description of assay [4]: Inhibition of CDK9/cyclin T (unknown origin) using […] incubated for 40 mins in presence of ATP by Kinase-Glo assay. Also on record: species or system Homo sapiens.

The source of these data is ChEMBL document CHEMBL6096697, “Structure-Guided Discovery of Novel N4-(Substituted Thiazol-2-yl)-N2-(4-Substituted phenyl)pyrimidine-2,4-Diamines as Potent CDK2 and CDK9 Dual Inhibitors with High Oral Bioavailability” (J Med Chem, 2025).

In general, inhibition refers to the share of the control response that was lost under treatment. The term IC50 denotes the midpoint of a concentration-inhibition curve. Regarding `NS(=O)(=O)c1ccc(Nc2nccc(Nc3nc(-c4ccc(F)cc4)cs3)n2)cc1`, the inhibition in assay [1] came to 65%. The IC50 was found to be 0.11 µM in assay [2] and 4.4 µM in the assay with HCT-116.
Regarding `CCOC(=O)c1sc(Nc2nc(Nc3ccc(S(N)(=O)=O)cc3)ncc2F)nc1C`, in assay [1], the inhibition is 69%. In addition, the results for the IC50 (in assay [2]; in the assay with HCT-116) were 0.47 µM and 9.26 µM, respectively.
For `Cc1cnc(Nc2nc(Nc3ccc(S(N)(=O)=O)cc3)ncc2F)s1` the same measures were 66%, 0.012 µM and 0.91 µM.
For `Cc1cnc(Nc2ccc(S(=O)(=O)N3CCOCC3)cc2)nc1Nc1nccs1`, the results for the inhibition in assay [3] and in assay [1] were 79% and 7%, respectively. In addition, the IC50 in the assay with HCT-116 is greater than 10 µM.
`Cc1cnc(Nc2ccc(S(N)(=O)=O)cc2)nc1Nc1nc(C2CC2)cs1`: the IC50 in assay [2] amounted to 0.005 µM; in assay [4], 0.046 µM; with HCT-116, 6.6 µM.
Consider `CCOC(=O)c1cnc(Nc2nc(Nc3ccc(S(N)(=O)=O)cc3)ncc2OC)s1`, for which the inhibition in assay [3] was found to be 36%; in assay [1], 32%. In the assay on HCT-116, the IC50 was greater than 10 µM.
In the case of `Cc1cnc(Nc2ccc(S(N)(=O)=O)cc2)nc1Nc1nc(-c2ccc(C(C)C)cc2)cs1`, the inhibition in assay [3] turned out to be 84%; in assay [1], 83%. The IC50 in the assay on HCT-116 worked out at 3.06 µM.
As for `c1ccc(Nc2nccc(Nc3nccs3)n2)cc1`, the values for the inhibition in assay [3] and in assay [1] were 61% and 18%, respectively. Besides, the 50% inhibitory concentration (IC50) in the assay with HCT-116 is greater than 10 µM.
Regarding `COCCNS(=O)(=O)c1ccc(Nc2ncc(C)c(Nc3nccs3)n2)cc1`, in assay [1], the inhibition worked out at 46%. In addition, the figures for the IC50 (in assay [2]; with HCT-116) were 0.043 µM and 7.42 µM, respectively.
`NS(=O)(=O)c1ccc(Nc2nccc(Nc3nc(C4CC4)cs3)n2)cc1`: the IC50 in assay [2] worked out at 0.016 µM; in assay [4], 0.046 µM; in the assay with HCT-116, 3.64 µM.
Consider `CCOC(=O)c1cnc(Nc2nc(Nc3ccc(S(N)(=O)=O)cc3)ncc2F)s1`, for which the inhibition was found to be 79% in assay [3] and 40% in assay [1]. Further, the IC50 with HCT-116 is 7.5 µM.
Consider `COc1cc(Nc2nccc(Nc3nccs3)n2)cc(OC)c1OC`, for which the values for the inhibition in assay [3] and in assay [1] were 30% and 49%, respectively. Also, the 50% inhibitory concentration (IC50) in the assay on HCT-116 is greater than 10 µM.
Consider `CNS(=O)(=O)c1ccc(Nc2ncc(C)c(Nc3nccs3)n2)cc1`, for which the inhibition turned out to be 85% in assay [3] and 19% in assay [1]. In the assay on HCT-116, the IC50 was greater than 10 µM.
Regarding `COc1ccc(Nc2nccc(Nc3nccs3)n2)cc1`, the IC50 in assay [2] was 0.91 µM; in assay [4], 1.84 µM; with HCT-116, 2.23 µM.
Consider `NS(=O)(=O)c1ccc(Nc2nccc(Nc3ncc([N+](=O)[O-])s3)n2)cc1`, for which the IC50 in assay [2] was 0.038 µM; in assay [4] it was 0.014 µM; in the assay with HCT-116, 8.83 µM.
The matching figures for `NS(=O)(=O)c1ccc(Nc2nccc(Nc3nccs3)n2)cc1`: 0.052 µM, 0.124 µM and 1.38 µM.
Turning to `Cc1csc(Nc2ccnc(Nc3ccc(S(N)(=O)=O)cc3)n2)n1`, the values for the inhibition in assay [3] and in assay [1] were 85% and 76%, respectively. In addition, the IC50 in the assay with HCT-116 is greater than 10 µM.
As to `Cc1cnc(Nc2ccc(S(N)(=O)=O)cc2)nc1Nc1nc(C(C)C)cs1`, the results for the concentration for half-maximal inhibition (IC50) (in assay [2]; in assay [4]; in the assay on HCT-116) were 0.011 µM, 0.294 µM and 5.82 µM, respectively.
With `CS(=O)(=O)c1ccc(Nc2nccc(Nc3nccs3)n2)cc1`, the values for the IC50 (in assay [2]; in assay [4]; with HCT-116) were 0.11 µM, 0.47 µM and 9.51 µM, respectively.
On to `NS(=O)(=O)c1ccc(Nc2ncc(F)c(Nc3nc(-c4ccc(F)cc4)cs3)n2)cc1`, for which, in assay [1], the inhibition came to 41%. In addition, the 50% inhibitory concentration (IC50) in assay [2] came to 0.023 µM; in the assay on HCT-116 it was 5.26 µM.
Take `Cc1csc(Nc2nc(Nc3ccc(S(N)(=O)=O)cc3)ncc2C)n1`: the IC50 in assay [2] worked out at 0.01 µM; in assay [4] it was 0.051 µM; with HCT-116, 3.21 µM.
The matching figures for `CC(C)c1csc(Nc2nc(Nc3ccc(S(N)(=O)=O)cc3)ncc2F)n1`: 0.008 µM, 0.038 µM and 3.87 µM.
Regarding `Cc1cnc(Nc2ccnc(Nc3ccc(S(N)(=O)=O)cc3)n2)s1`, the inhibition in assay [1] turned out to be 29%. Further, the figures for the IC50 (in assay [2]; in the assay on HCT-116) were 0.005 µM and 0.53 µM, respectively.
Take `COC(=O)c1sc(Nc2nc(Nc3ccc(S(N)(=O)=O)cc3)ncc2OC)nc1C`: the inhibition in assay [3] turned out to be 44%; in assay [1], 19%. For the same compound, the IC50 in the assay with HCT-116 is greater than 10 µM.
`COC(=O)c1sc(Nc2ccnc(Nc3ccc(S(N)(=O)=O)cc3)n2)nc1C`: the inhibition in assay [3] was determined as 67%; in assay [1] it was 31%. For the same compound, the IC50 in the assay on HCT-116 was found to be 8.72 µM.
The matching figures for `Cc1cnc(Nc2ccc(S(=O)(=O)NC(C)C)cc2)nc1Nc1nccs1`: 81%, 31% and greater than 10 µM.
The matching figures for `COc1cnc(Nc2ccc(S(N)(=O)=O)cc2)nc1Nc1ncc(C)s1`: 72%, 75% and 9.76 µM.
The matching figures for `CC(C)c1ccc(-c2csc(Nc3ccnc(Nc4ccc(S(N)(=O)=O)cc4)n3)n2)cc1`: 59%, 63% and 6.43 µM.
For the compound `COC(=O)c1sc(Nc2nc(Nc3ccc(S(N)(=O)=O)cc3)ncc2C)nc1C`, the inhibition in assay [1] was determined as 84%. For the same compound, the IC50 in assay [2] is 0.053 µM; with HCT-116, greater than 10 µM.
For `CC(C)c1csc(Nc2ccnc(Nc3ccc(S(N)(=O)=O)cc3)n2)n1` the same measures were 81%, 0.027 µM and 7.35 µM.
With `Cc1cnc(Nc2ccc(S(N)(=O)=O)cc2)nc1Nc1nc(-c2ccc(F)cc2)cs1`, the IC50 came to 0.032 µM in assay [2], 0.089 µM in assay [4] and 6.05 µM with HCT-116.
The matching figures for `COc1cnc(Nc2ccc(S(N)(=O)=O)cc2)nc1Nc1nccs1`: 0.112 µM, 0.011 µM and greater than 10 µM.
The matching figures for `NS(=O)(=O)c1ccc(Nc2ncc(F)c(Nc3nccs3)n2)cc1`: 0.01 µM, 0.217 µM and 4.04 µM.
As for `Cc1cnc(Nc2nc(Nc3ccc(S(N)(=O)=O)cc3)ncc2C)s1`, the inhibition in assay [3] amounted to 78%. Also, the half-inhibitory concentration (IC50) in assay [4] is 0.002 µM; in the assay with HCT-116 it was 0.692 µM.
Take `COc1ccc(Nc2nccc(Nc3ncco3)n2)cc1`: the inhibition in assay [3] was determined as 60%; in assay [1], 21%. Further, the IC50 in the assay on HCT-116 was greater than 10 µM.
Take `NS(=O)(=O)c1ccc(Nc2ncc(F)c(Nc3nc(C4CC4)cs3)n2)cc1`: the inhibition in assay [1] is 51%. Moreover, the figures for the IC50 (in assay [2]; in the assay on HCT-116) were 0.011 µM and 7.85 µM, respectively.
Take `CCOC(=O)c1sc(Nc2nc(Nc3ccc(S(N)(=O)=O)cc3)ncc2C)nc1C`: the inhibition in assay [3] is 81%; in assay [1], 83%. Besides, the concentration for half-maximal inhibition (IC50) with HCT-116 is greater than 10 µM.
On to `COc1ccc(Nc2nccc(Nc3cc[nH]n3)n2)cc1`, for which the inhibition in assay [3] worked out at 47%; in assay [1], 29%. In the assay with HCT-116, the IC50 is greater than 10 µM.
The matching figures for `CCOC(=O)c1cnc(Nc2nc(Nc3ccc(S(N)(=O)=O)cc3)ncc2C)s1`: 82%, 79% and 4.58 µM.
The matching figures for `CC(C)c1ccc(-c2csc(Nc3nc(Nc4ccc(S(N)(=O)=O)cc4)ncc3F)n2)cc1`: 65%, 27% and greater than 10 µM.
The matching figures for `Fc1ccc(Nc2nccc(Nc3nccs3)n2)cc1`: 9%, 6% and greater than 10 µM.
Regarding `Brc1ccc(Nc2nccc(Nc3nccs3)n2)cc1`, the inhibition is 17% in assay [3] and 15% in assay [1]. Also, the IC50 with HCT-116 worked out at 6.84 µM.
The matching figures for `Cc1cnc(Nc2ccc(S(=O)(=O)NC3CC3)cc2)nc1Nc1nccs1`: 76%, 62% and 9.62 µM.
Take `Cc1cnc(Nc2ccc(S(C)(=O)=O)cc2)nc1Nc1nccs1`: the values for the IC50 (in assay [2]; in assay [4]; in the assay with HCT-116) were 0.055 µM, 0.013 µM and 6.09 µM, respectively.
In the case of `Cc1cnc(Nc2ccc(S(=O)(=O)N3CCCCC3)cc2)nc1Nc1nccs1`, the inhibition in assay [1] came to 4%. The concentration for half-maximal inhibition (IC50) in assay [2] was 0.026 µM; in the assay with HCT-116 it was 3.05 µM.
